# Measurements: patent US11660287B2, “Agent for preventing or treating spinocerebellar ataxia” (FUJIFILM Toyama Chemical Co., Ltd., priority 2017, dated 2023)
# Test system: Mild to Moderate AD Patients
# Assay: Phase II placebo-controlled trial: change in brain volume by volumetric MRI (vMRI) at week 52
# Format: in vivo, human
# Conditions: for Change in hippocampus volume, least square means (standard error) / Change in whole brain volume, least square means (standard error): mixed-effect model
# From the text: Test Example 1 Multicenter Randomized Double-Blind Phase II Placebo-Controlled Trial for Assessing Effectiveness and Safety of Compound A in Mild to Moderate AD Patients
# Subject (selection criteria): Patients were screened in a period from 42 days before treatment assignment to the assignment based on the following selection criteria.
# • Patients who were probable AD and are 55 years old or older and 85 years old or younger at the time of obtaining consent of screening. • Patients with an MMSE score of 12 to 22 at the time of screening • Patients with a Modified Hachinski Ischemia Scale score of 4 or less • Patients who have been treated with a donepezil hydrochloride or rivastigmine transdermal system for at least 4 months before the baseline and with a stable dose thereof for 3 months before the baseline. • In the case of patients who have received memantine in addition to being treated with a donepezil hydrochloride or rivastigmine transdermal system, patients who have been treated with memantine for at least 4 months before the baseline and with a stable dose thereof for 3 months before the baseline. • Patients whose brain MRI or CT results match AD at the time of screening Organization of groups: Patients matched (484 patients) were randomly divided into the following 3 groups and the trial was started. (1) High dose group: 224 mg of a test compound (160 mg in terms of Compound A) was orally administered once a day for 4 weeks and then 448 mg of a test compound (320 mg in terms of Compound A) was orally administered once a day for 48 weeks (158 patients) (2) Low dose group: 224 mg of a test compound (160 mg in terms of Compound A) was orally administered once a day for 52 weeks (166 patients) (3) Placebo group: placebo was orally administered once a day for 52 weeks (158 patients) Method of Assessment: Volumetric MRI
# Brain volume of subjects was measured by vMRI scan at the screening and after 52 weeks, and the volume change of the whole brain and the hippocampus of the subjects were quantified to assess brain atrophy based on the change from the screening.
# Furthermore, volume change of the whole brain and 101 areas (obtained by dividing the areas existing in both the left brain and the right brain of the Brodmann areas (1 to 52) into 101 areas) in each subject was quantified to assess brain atrophy based on the change from the screening.
# Changes in the volume of the whole brain and the hippocampus after 52 weeks from the baseline were compared between the high dose group and the placebo group, and between the low dose group and the placebo group based on Mixed-effect Models. For models, the treatment groups were included as a fixed effect, age, baseline of the respective brain volumes (the whole brain or the hippocampus), baseline of MMSE and ApoE4 genotype (positive/negative) were included as covariates, and trial sites were included as a random effect.
# Furthermore, changes in the respective volumes of the whole brain and the 101 areas after 52 weeks from the baseline were compared between the high dose group and the placebo group, and between the low dose group and the placebo group.
# [1] = High dose group (160 mg for 4 weeks, then 320 mg in terms of Compound A, oral once a day, for 48 weeks), week 52 vs baseline, vMRI
# [2] = Low dose group (160 mg in terms of Compound A, oral once a day, 52 weeks), week 52 vs baseline, vMRI
smiles,measurement,setting,value
"OC1CN(CCCOCCc2ccc3sccc3c2)C1 [Compound A, 1-(3-(2-(1-benzothiophen-5-yl)ethoxy)propyl)azetidin-3-ol]",Change in the volume of the whole brain and the hippocampus compared with placebo group (in words),"Compound A group vs placebo group, week 52 from baseline",volume reduction tended to be smaller
same,Volume reduction of the cerebellum compared to the placebo group (in words),Compound A high dose group,same tendency as in the low dose group was observed
same,Difference in effects on the change in hippocampal volume vs placebo group (in words),"Compound A low dose group vs placebo group, week 52",statistically significant
same,Volume reduction of the cerebellum compared to the placebo group (in words),"Compound A low dose group, whole brain and 101 areas, Nos. 1, 2, 4 and 8 in Table 2",particularly tended to be suppressed
same,"Change in hippocampus volume, least square means (standard error)",[1],−0.31(0.057) mL
same,"Change in whole brain volume, least square means (standard error)",[1],−20.05(3.821) mL
same,"Change in hippocampus volume, difference from placebo group (95% confidence interval)","High dose group, week 52 vs baseline, p-value 0.0996","0.08(−0.02, 0.18) mL"
same,"Change in whole brain volume, difference from placebo group (95% confidence interval)","High dose group, week 52 vs baseline, p-value 0.2581","3.94(−2.91, 10.79) mL"
same,"Change in hippocampus volume, least square means (standard error)",[2],−0.27(0.053) mL
same,"Change in whole brain volume, least square means (standard error)",[2],−21.37(3.582) mL
same,"Change in hippocampus volume, difference from placebo group (95% confidence interval)","Low dose group, week 52 vs baseline, p-value 0.0106","0.12(0.03, 0.22) mL"
same,"Change in whole brain volume, difference from placebo group (95% confidence interval)","Low dose group, week 52 vs baseline, p-value 0.4456","2.63(−4.15, 9.40) mL"
same,"Change in brain volume, mean value: ctx-lh-parsorbitalis","Low dose group, week 52 vs baseline, vMRI, placebo −0.5499, p 0.0323",0.1244
same,"Change in brain volume, mean value: Left-Cerebellum-Cortex","Low dose group, week 52 vs baseline, vMRI, placebo −0.6899, p 0.0005",−0.2695
same,"Change in brain volume, mean value: Right-Cerebellum-Cortex","Low dose group, week 52 vs baseline, vMRI, placebo −0.7248, p 0.0090",−0.3209
same,"Change in brain volume, mean value: Right-Cerebral-White-Matte","Low dose group, week 52 vs baseline, vMRI, placebo −1.4416, p 0.0157",−1.0753
same,"Change in brain volume, mean value: ctx-rh-lateral orbitofrontal","Low dose group, week 52 vs baseline, vMRI, placebo −1.5322, p 0.0146",−0.8995
same,"Change in brain volume, mean value: Left-Cerebral-White-Matter","Low dose group, week 52 vs baseline, vMRI, placebo −1.5679, p 0.0215",−1.2418
same,"Change in brain volume, mean value: Whole_brain","Low dose group, week 52 vs baseline, vMRI, placebo −1.5952, p 0.0054",−1.3142
same,"Change in brain volume, mean value: Right-Cerebellum-White-Matter","Low dose group, week 52 vs baseline, vMRI, placebo −1.6919, p 0.0014",−0.89
same,"Change in brain volume, mean value: Left-Cerebellum-White-Matter","Low dose group, week 52 vs baseline, vMRI, placebo −2.0490, p 0.0001",−0.9201
same,"Change in brain volume, mean value: ctx-lh-insula","Low dose group, week 52 vs baseline, vMRI, placebo −2.6470, p 0.0030",−1.9609
same,"Change in brain volume, mean value: ctx-rh-insula","Low dose group, week 52 vs baseline, vMRI, placebo −2.6510, p 0.0056",−1.9976
same,"Change in brain volume, mean value: ctx-rh-superior temporal","Low dose group, week 52 vs baseline, vMRI, placebo −2.9861, p 0.0013",−2.1332
same,"Change in brain volume, mean value: Left-Hippocampus","Low dose group, week 52 vs baseline, vMRI, placebo −3.0880, p 0.0232",−2.3402
same,"Change in brain volume, mean value: ctx-rh-inferior temporal","Low dose group, week 52 vs baseline, vMRI, placebo −3.2601, p 0.0124",−2.6157
same,"Change in brain volume, mean value: ctx-lh-entorhinal","Low dose group, week 52 vs baseline, vMRI, placebo −3.8173, p 0.0195",−2.97
